Source: the kinase profiling compilation of Christmann-Franck et al. (2016)

Legend:
Test in all cases: radiometric filter-binding kinase assay, Kinase HotSpot
Settings in all cases: compound 0.5 µM; ATP 10 µM
INSRR (human) = INSRR (human) (UniProt P14616)
NEK9 (human) = NEK9 (human) (UniProt Q8TD19)
NEK1 (human) = NEK1 (human) (UniProt Q96PY6)
CAMK2G (human) = CAMK2G (human) (UniProt Q13555)
TGFBR1 (human) = TGFBR1 (human) (UniProt P36897)
MAPK12 (human) = MAPK12 (human) (UniProt P53778)
SRC (human) = SRC (human) (UniProt P12931)
TEK (human) = TEK (human) (UniProt Q02763)
TNK2 (human) = TNK2 (human) (UniProt Q07912)
ADRBK1 (human) = ADRBK1 (human) (UniProt P25098)
CAMK4 (human) = CAMK4 (human) (UniProt Q16566)
MAP3K9 (human) = MAP3K9 (human) (UniProt P80192)
MAP3K11 (human) = MAP3K11 (human) (UniProt Q16584)
MAP3K11 (human), sequence (Q16584 whole entry, looked up): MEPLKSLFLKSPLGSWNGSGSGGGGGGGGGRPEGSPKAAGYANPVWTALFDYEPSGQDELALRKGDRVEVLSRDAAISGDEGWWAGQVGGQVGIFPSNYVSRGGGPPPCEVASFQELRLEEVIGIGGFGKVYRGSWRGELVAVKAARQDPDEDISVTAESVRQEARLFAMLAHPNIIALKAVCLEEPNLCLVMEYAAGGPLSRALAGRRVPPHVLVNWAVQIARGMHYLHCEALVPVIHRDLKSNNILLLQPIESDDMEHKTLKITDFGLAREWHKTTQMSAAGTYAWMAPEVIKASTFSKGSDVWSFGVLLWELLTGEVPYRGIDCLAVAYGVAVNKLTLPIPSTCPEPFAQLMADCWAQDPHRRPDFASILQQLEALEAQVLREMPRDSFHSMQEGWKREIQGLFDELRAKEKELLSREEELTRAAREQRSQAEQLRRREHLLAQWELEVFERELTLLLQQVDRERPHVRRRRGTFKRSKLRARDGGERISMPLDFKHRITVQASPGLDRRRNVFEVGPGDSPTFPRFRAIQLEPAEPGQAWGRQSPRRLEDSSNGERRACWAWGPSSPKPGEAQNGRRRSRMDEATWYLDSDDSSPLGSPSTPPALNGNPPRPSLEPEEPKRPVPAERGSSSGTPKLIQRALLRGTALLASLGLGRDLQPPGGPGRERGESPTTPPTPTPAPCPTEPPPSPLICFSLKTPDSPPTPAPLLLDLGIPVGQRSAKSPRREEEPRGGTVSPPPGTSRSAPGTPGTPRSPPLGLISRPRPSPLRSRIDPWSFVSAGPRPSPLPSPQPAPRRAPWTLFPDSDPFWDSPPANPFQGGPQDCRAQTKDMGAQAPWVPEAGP

CHEK1 (human) = CHEK1 (human) (UniProt O14757)
CDK3 CCNE1 (human) = CDK3 CCNE1 (human) (UniProt Q00526+P24864)
CDK3 CCNE1 (human), sequence (P24864 whole entry, looked up): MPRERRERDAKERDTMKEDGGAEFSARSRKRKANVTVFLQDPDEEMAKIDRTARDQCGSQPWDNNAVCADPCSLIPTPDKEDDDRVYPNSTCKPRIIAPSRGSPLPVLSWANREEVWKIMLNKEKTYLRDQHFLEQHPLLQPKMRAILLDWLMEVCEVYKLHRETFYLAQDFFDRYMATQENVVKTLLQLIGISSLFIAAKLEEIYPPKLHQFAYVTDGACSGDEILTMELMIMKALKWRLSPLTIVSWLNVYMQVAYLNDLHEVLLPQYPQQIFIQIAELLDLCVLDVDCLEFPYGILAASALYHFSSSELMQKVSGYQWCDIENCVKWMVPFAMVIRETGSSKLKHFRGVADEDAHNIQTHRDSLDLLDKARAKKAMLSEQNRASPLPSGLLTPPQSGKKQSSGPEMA
CDK3 CCNE1 (human), sequence (Q00526 whole entry, looked up): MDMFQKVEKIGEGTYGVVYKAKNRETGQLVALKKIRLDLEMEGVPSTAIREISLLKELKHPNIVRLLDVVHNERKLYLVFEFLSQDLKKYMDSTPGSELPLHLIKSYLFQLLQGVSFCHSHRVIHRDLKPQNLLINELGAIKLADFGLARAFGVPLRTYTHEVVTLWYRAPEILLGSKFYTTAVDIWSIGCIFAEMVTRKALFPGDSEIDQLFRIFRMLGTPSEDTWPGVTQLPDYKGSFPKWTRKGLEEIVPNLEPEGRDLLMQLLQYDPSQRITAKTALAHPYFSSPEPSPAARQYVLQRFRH

PRKX (human) = PRKX (human) (UniProt P51817)
CSK (human) = CSK (human) (UniProt P41240)
AURKC (human) = AURKC (human) (UniProt Q9UQB9)
AURKC (human), sequence (Q9UQB9 whole entry, looked up): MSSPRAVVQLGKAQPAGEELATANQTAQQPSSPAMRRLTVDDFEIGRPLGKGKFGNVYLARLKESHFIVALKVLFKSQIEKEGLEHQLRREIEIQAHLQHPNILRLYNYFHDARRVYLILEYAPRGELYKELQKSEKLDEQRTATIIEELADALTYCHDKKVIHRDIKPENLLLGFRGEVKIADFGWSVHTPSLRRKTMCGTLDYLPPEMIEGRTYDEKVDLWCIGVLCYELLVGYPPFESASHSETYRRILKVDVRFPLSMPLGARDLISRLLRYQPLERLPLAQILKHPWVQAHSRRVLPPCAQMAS

PDGFRA (human) = PDGFRA (human) (UniProt P16234)
MAP4K2 (human) = MAP4K2 (human) (UniProt Q12851)
MAP4K2 (human), sequence (Q12851 whole entry, looked up): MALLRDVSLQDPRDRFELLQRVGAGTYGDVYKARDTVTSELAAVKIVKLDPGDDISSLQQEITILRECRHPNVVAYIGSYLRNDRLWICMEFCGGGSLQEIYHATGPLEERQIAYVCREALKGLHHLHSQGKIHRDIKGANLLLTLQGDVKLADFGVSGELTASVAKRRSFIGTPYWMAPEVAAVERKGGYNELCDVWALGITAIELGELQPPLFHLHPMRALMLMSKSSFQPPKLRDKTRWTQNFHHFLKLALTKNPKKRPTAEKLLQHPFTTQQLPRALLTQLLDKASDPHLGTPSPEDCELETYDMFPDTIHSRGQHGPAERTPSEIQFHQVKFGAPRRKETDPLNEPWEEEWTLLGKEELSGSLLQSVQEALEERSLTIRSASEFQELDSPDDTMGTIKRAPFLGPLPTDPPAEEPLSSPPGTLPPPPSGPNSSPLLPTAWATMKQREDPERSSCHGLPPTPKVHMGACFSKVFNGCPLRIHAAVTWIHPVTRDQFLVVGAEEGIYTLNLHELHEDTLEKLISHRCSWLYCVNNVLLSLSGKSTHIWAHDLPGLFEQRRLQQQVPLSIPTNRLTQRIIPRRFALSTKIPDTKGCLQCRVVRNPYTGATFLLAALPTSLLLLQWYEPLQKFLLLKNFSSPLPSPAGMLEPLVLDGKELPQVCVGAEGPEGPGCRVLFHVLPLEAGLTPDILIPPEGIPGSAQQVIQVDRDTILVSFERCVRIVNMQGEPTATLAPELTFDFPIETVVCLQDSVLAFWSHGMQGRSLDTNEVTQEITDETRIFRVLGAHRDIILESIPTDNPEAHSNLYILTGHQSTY

FGR (human) = FGR (human) (UniProt P09769)
CDK1 CCNB1 (human) = CDK1 CCNB1 (human) (UniProt P06493+P14635)
IRAK4 (human) = IRAK4 (human) (UniProt Q9NWZ3)
MAP2K2 (human) = MAP2K2 (human) (UniProt P36507)
MAP2K2 (human), sequence (P36507 whole entry, looked up): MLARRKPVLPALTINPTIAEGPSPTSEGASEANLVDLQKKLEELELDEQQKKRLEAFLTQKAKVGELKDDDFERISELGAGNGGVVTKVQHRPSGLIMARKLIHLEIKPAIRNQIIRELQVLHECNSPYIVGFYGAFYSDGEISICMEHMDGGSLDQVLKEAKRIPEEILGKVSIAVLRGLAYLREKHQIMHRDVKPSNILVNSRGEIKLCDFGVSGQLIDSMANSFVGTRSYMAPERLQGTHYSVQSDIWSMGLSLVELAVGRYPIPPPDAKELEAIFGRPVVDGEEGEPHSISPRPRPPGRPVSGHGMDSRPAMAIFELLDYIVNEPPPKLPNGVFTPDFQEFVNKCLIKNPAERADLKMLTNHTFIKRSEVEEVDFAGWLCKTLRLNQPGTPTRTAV

MAP3K3 (human) = MAP3K3 (human) (UniProt Q99759)
PIM3 (human) = PIM3 (human) (UniProt Q86V86)
PAK7 (human) = PAK7 (human) (UniProt Q9P286)
PIM2 (human) = PIM2 (human) (UniProt Q9P1W9)
PIM2 (human), sequence (Q9P1W9 whole entry, looked up): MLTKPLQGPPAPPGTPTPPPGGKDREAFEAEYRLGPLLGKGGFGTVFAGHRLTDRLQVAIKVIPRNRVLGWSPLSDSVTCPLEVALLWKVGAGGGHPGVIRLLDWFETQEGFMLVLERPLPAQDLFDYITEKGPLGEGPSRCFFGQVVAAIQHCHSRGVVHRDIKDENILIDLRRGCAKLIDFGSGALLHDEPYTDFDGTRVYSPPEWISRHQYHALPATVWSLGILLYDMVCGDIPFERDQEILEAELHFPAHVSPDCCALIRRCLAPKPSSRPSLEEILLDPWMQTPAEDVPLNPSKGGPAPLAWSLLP

GSK3A (human) = GSK3A (human) (UniProt P49840)
MAP3K2 (human) = MAP3K2 (human) (UniProt Q9Y2U5)
WNK2 (human) = WNK2 (human) (UniProt Q9Y3S1)
CDK1 CCNA2 (human) = CDK1 CCNA2 (human) (UniProt P06493+P20248)
CDK4 CCND3 (human) = CDK4 CCND3 (human) (UniProt P30281+P11802)
[1] = target: JAK1 JH1 catalytic (human) (UniProt P23458)
STK33 (human) = STK33 (human) (UniProt Q9BYT3)
HIPK3 (human) = HIPK3 (human) (UniProt Q9H422)
AKT2 (human) = AKT2 (human) (UniProt P31751)
NTRK3 (human) = NTRK3 (human) (UniProt Q16288)
SLK (human) = SLK (human) (UniProt Q9H2G2)
FRK (human) = FRK (human) (UniProt P42685)
STK24 (human) = STK24 (human) (UniProt Q9Y6E0)
HCK (human) = HCK (human) (UniProt P08631)

INSRR (human), sequence (P14616 whole entry, looked up): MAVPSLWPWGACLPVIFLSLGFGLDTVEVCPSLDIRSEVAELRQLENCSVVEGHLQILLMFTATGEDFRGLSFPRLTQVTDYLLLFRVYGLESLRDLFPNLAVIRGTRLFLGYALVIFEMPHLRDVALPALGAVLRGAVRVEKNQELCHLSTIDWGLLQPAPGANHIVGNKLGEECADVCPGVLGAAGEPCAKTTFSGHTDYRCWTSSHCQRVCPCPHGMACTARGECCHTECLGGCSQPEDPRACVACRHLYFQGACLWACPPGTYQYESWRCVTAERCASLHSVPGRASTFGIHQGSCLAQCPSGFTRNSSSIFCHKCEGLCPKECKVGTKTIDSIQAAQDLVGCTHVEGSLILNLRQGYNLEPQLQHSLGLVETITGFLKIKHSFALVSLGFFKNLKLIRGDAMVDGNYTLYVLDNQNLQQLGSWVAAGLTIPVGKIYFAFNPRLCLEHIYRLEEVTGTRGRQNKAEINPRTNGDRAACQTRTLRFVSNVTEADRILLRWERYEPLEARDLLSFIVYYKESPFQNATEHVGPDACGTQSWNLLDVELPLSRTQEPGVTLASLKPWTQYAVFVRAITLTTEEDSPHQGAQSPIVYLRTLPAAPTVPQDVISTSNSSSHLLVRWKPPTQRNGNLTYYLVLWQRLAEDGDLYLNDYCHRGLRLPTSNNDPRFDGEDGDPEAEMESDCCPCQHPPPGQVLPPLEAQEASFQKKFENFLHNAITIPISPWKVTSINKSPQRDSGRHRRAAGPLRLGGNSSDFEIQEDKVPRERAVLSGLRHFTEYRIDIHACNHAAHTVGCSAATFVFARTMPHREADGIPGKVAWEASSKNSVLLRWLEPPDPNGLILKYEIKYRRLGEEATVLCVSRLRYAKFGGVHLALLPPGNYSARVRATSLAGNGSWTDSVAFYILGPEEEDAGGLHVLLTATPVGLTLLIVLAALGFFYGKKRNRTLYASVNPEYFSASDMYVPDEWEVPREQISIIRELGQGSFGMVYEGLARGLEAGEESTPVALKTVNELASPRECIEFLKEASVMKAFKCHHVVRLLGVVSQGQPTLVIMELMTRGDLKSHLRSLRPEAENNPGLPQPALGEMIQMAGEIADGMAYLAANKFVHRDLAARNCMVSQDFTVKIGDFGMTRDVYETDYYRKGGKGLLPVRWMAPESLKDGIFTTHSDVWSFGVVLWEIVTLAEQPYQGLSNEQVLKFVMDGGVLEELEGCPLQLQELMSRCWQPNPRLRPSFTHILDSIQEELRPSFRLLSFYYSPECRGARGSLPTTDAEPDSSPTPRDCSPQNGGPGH

`N#C/C(=C(/N)Sc1ccc(N)cc1)c1ccccc1C(F)(F)F` was tested, and the residual activity (INSRR (human)) was 88.1%, the residual activity (NEK9 (human)) was 99.2% and the residual activity (NEK1 (human)) was 99%. For the same compound, the residual activity (CAMK2G (human)) was 106%, the residual activity (TGFBR1 (human)) was 98.3% and the residual activity (MAPK12 (human)) was 97.4%. It also gave a residual activity (SRC (human)) of 94.1%, a residual activity (TEK (human)) of 104% and a residual activity (TNK2 (human)) of 100%. The residual activity (ADRBK1 (human)) was 114%, the residual activity (CAMK4 (human)) was 110% and the residual activity (MAP3K9 (human)) was 85.9%. For the same compound, the residual activity (MAP3K11 (human)) was 99.9%, the residual activity (CHEK1 (human)) was 97.5% and the residual activity (CDK3 CCNE1 (human)) was 105%. For the same compound, the residual activity (PRKX (human)) was 98.9%, the residual activity (CSK (human)) was 90.9% and the residual activity (AURKC (human)) was 97.5%. For the same compound, the residual activity (PDGFRA (human)) was 99.5%, the residual activity (MAP4K2 (human)) was 85.7% and the residual activity (FGR (human)) was 101%. The residual activity (CDK1 CCNB1 (human)) was 105%, the residual activity (IRAK4 (human)) was 89.8% and the residual activity (MAP2K2 (human)) was 94.5%. For the same compound, the residual activity (MAP3K3 (human)) was 97.7%, the residual activity (PIM3 (human)) was 111% and the residual activity (PAK7 (human)) was 104%. It also gave a residual activity (PIM2 (human)) of 103%, a residual activity (GSK3A (human)) of 110% and a residual activity (MAP3K2 (human)) of 115%. For the same compound, the residual activity (WNK2 (human)) was 109%, the residual activity (CDK1 CCNA2 (human)) was 91.2% and the residual activity (CDK4 CCND3 (human)) was 108%. For the same compound, the residual activity [1] was 106%, the residual activity (STK33 (human)) was 92.2% and the residual activity (HIPK3 (human)) was 114%. It also gave a residual activity (AKT2 (human)) of 102%, a residual activity (NTRK3 (human)) of 101% and a residual activity (SLK (human)) of 102%. For the same compound, the residual activity (FRK (human)) was 102%, the residual activity (STK24 (human)) was 89.3% and the residual activity (HCK (human)) was 93.9%.
Work on `Cc1[nH]c(/C=C2\C(=O)Nc3ccc(S(=O)(=O)N(C)c4cccc(Cl)c4)cc32)c(C)c1C(=O)N1CCN(C)CC1` yielded a residual activity (INSRR (human)) of 93%, a residual activity (NEK9 (human)) of 92.5% and a residual activity (NEK1 (human)) of 23.5%. For the same compound, the residual activity (CAMK2G (human)) was 119%, the residual activity (TGFBR1 (human)) was 103% and the residual activity (MAPK12 (human)) was 99.8%. For the same compound, the residual activity (SRC (human)) was 53.3%, the residual activity (TEK (human)) was 90.8% and the residual activity (TNK2 (human)) was 65.4%. For the same compound, the residual activity (ADRBK1 (human)) was 105%, the residual activity (CAMK4 (human)) was 96.2% and the residual activity (MAP3K9 (human)) was 95.2%. It also gave a residual activity (MAP3K11 (human)) of 79.1%, a residual activity (CHEK1 (human)) of 89.7% and a residual activity (CDK3 CCNE1 (human)) of 89.4%. It also gave a residual activity (PRKX (human)) of 104%, a residual activity (CSK (human)) of 78.2% and a residual activity (AURKC (human)) of 37.9%. The residual activity (PDGFRA (human)) was 72.8%, the residual activity (MAP4K2 (human)) was 53.5% and the residual activity (FGR (human)) was 39.2%. It also gave a residual activity (CDK1 CCNB1 (human)) of 101%, a residual activity (IRAK4 (human)) of 65.5% and a residual activity (MAP2K2 (human)) of 99.5%. It also gave a residual activity (MAP3K3 (human)) of 63.6%, a residual activity (PIM3 (human)) of 106% and a residual activity (PAK7 (human)) of 97.1%. It also gave a residual activity (PIM2 (human)) of 103%, a residual activity (GSK3A (human)) of 98.4% and a residual activity (MAP3K2 (human)) of 68.5%. For the same compound, the residual activity (WNK2 (human)) was 112%, the residual activity (CDK1 CCNA2 (human)) was 88.7% and the residual activity (CDK4 CCND3 (human)) was 101%. For the same compound, the residual activity [1] was 68%, the residual activity (STK33 (human)) was 67.9% and the residual activity (HIPK3 (human)) was 103%. For the same compound, the residual activity (AKT2 (human)) was 102%, the residual activity (NTRK3 (human)) was 5.93% and the residual activity (SLK (human)) was 13.6%. For the same compound, the residual activity (FRK (human)) was 95.4%, the residual activity (STK24 (human)) was 49.6% and the residual activity (HCK (human)) was 63.5%.
